Source: ChEMBL document CHEMBL1146208, “Discovery and optimization of novel, non-steroidal glucocorticoid receptor modulators” (Bioorg Med Chem Lett, 2007)

Legend:
[1] = molecular target: T1, Mineralocorticoid receptor (Homo sapiens, UniProt P08235); assay: biochemical
T1 sequence (P08235 whole entry): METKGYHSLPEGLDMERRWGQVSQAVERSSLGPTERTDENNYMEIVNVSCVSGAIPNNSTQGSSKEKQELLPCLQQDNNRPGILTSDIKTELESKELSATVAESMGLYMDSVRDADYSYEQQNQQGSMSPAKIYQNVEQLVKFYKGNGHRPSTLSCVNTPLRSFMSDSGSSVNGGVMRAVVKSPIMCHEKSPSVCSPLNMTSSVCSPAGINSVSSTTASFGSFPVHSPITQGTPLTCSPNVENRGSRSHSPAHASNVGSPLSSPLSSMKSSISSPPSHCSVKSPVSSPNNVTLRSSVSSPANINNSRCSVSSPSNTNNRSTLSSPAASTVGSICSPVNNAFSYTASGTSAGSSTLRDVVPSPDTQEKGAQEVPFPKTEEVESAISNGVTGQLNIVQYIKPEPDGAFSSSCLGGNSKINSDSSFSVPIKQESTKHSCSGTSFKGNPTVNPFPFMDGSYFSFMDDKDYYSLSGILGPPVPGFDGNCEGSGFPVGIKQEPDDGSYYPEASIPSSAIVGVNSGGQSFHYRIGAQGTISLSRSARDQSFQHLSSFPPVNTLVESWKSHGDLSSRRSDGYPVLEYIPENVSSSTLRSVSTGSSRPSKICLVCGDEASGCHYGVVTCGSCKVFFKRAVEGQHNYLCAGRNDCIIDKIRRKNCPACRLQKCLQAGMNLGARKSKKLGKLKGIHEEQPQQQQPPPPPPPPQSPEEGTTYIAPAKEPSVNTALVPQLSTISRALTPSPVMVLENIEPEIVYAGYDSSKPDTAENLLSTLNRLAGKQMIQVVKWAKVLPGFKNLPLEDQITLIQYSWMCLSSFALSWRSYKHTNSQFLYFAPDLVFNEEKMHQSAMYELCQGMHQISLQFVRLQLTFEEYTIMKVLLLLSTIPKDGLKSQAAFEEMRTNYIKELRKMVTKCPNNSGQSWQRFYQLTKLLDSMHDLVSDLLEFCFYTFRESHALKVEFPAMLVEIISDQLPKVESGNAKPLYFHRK
Description: Displacement of [3H]aldosterone from mineralocorticoid receptor expressed in Sf9 cells

[2] = molecular target: T2, Glucocorticoid receptor (Homo sapiens, UniProt P04150); assay: Displacement of [3H]dexamethasone from human recombinant GR
T2 sequence (P04150 whole entry): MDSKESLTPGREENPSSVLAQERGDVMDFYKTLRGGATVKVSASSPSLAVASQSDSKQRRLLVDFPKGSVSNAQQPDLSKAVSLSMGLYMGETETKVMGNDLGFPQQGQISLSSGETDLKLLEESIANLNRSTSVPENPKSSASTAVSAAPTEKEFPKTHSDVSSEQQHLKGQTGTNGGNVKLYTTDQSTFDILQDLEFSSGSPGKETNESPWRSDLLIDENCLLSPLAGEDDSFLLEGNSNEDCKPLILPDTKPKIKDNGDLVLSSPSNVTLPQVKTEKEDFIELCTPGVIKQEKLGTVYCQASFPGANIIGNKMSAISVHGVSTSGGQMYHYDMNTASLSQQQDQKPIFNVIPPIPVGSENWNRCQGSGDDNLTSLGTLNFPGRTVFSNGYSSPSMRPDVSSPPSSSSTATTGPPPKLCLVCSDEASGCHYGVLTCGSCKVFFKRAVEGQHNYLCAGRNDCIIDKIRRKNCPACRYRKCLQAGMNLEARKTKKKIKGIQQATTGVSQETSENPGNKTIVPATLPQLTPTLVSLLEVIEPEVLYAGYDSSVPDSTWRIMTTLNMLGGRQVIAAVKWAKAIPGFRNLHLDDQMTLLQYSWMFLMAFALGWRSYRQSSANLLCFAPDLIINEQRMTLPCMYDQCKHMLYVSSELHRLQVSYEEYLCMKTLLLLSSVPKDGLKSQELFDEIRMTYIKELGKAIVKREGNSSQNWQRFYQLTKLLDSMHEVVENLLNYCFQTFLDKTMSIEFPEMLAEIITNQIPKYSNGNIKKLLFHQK

[3] = molecular target: T2, Glucocorticoid receptor; assay: Antagonist activity at human GR; assay type: functional
[4] = molecular target: T3, Glucocorticoid receptor (Homo sapiens) (UniProt P04150); assay: Displacement of [3H]dexamethasone from glucocorticoid receptor at 1 uM
T3 sequence (whole entry): T2 sequence (P04150 whole entry)

[5] = molecular target: T4, Progesterone receptor (Homo sapiens, UniProt P06401); assay: Displacement of [3H]progesterone from progesterone receptor
T4 sequence (P06401 whole entry): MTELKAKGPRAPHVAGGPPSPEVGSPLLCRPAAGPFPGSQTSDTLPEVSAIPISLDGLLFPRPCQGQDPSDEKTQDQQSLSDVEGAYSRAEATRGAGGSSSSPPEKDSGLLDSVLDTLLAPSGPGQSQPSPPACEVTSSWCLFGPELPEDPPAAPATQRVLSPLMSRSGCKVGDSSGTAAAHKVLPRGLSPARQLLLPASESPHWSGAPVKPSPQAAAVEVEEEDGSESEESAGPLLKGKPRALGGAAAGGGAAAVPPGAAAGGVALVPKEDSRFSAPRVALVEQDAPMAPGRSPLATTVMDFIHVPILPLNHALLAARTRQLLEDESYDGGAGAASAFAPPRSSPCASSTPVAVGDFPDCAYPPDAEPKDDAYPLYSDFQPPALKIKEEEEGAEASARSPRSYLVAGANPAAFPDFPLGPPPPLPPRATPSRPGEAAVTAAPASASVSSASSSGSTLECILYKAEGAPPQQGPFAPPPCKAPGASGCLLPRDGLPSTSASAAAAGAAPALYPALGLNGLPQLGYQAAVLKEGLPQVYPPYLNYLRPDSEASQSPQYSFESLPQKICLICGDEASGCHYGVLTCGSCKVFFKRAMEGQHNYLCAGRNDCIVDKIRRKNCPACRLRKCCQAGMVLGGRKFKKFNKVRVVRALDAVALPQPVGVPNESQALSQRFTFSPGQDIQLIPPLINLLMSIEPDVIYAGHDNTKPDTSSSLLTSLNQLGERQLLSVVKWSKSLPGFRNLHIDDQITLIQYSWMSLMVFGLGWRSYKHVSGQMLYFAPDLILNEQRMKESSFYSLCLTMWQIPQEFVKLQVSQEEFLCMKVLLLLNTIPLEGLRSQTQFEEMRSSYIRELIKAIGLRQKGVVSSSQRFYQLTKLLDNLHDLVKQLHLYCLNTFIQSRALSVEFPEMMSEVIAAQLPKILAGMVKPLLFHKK

[6] = AUC in rat at 5 mg/kg, po; assay type: ADME, organism-based; set-up: dose 5 mg/kg, route oral; details: plasma
[7] = molecular target: CYP3A4 (Homo sapiens, UniProt P08684); assay: Inhibition of CYP3A4 at 1 uM; assay type: ADME
[8] = Cmax in rat at 5 mg/kg, po; assay type: ADME, organism-based; set-up: dose 5 mg/kg, route oral; details: in vivo
[9] = test system: Brain; assay: Drug level in rat brain at 1 mg/kg, iv; assay type: ADME, organism-based; set-up: dose 1 mg/kg, route intravenous; details: in vivo
[10] = test system: Plasma; assay: Drug lavel in rat plasma at 1 mg/kg, iv; assay type: ADME, organism-based; set-up: dose 1 mg/kg, route intravenous; details: in vivo
[11] = Metabolic stability in human […] S9 fraction after 30 mins; assay type: ADME; details: read-out: Stability

Chain of CYP3A4 (P08684 whole entry): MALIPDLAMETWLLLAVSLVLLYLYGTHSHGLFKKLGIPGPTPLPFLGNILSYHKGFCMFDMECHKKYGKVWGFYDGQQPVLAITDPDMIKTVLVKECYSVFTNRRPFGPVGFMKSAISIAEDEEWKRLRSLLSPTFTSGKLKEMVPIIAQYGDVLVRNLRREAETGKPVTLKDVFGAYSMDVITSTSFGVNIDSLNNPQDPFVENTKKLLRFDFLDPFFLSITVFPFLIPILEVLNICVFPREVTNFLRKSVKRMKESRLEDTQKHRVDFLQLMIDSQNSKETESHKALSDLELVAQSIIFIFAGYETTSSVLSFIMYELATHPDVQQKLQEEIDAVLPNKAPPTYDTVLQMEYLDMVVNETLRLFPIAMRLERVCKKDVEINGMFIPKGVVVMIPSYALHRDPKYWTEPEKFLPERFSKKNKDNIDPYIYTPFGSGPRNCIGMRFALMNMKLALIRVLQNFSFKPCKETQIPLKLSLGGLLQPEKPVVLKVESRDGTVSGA

Ki [2] [nM]	Ki [3] [nM]	SMILES	also measured
		O=c1[nH]c(N2CCC(c3cccc(Cl)c3)CC2)c(Cc2ccccc2)c(=O)[nH]1	Ki [1]: 527 nM
4500		Cn1c(=O)[nH]c(N2CCC(O)CC2)c(Cc2cccc(C(F)(F)F)c2)c1=O	
33	300	Cn1c(=O)[nH]c(N2CCC(Cc3ccccc3)CC2)c(Cc2ccccc2Br)c1=O	
		Cn1c(=O)[nH]c(N2CCc3ccccc3C2)c(Cc2ccccc2)c1=O	inhibition [4]: 23%
46		CC(=O)Nc1ccc(C2CCN(c3[nH]c(=O)[nH]c(=O)c3Cc3ccccc3)CC2)cc1	
14	65	O=c1[nH]c(N2CCC(c3ccccc3)CC2)c(Cc2cccc(Br)c2)c(=O)[nH]1	
		COc1cccc(Cc2c(N3CCC(c4ccccc4)CC3)[nH]c(=O)[nH]c2=O)c1	inhibition [4]: 31%
		Cn1c(N2CCC(Cc3ccccc3)CC2)c(Cc2ccccc2)c(=O)[nH]c1=O	inhibition [4]: 11%
8.7	50	O=c1[nH]c(N2CCC(c3ccccc3)CC2)c(Cc2ccccc2Cl)c(=O)[nH]1	Ki [1]: 3490 nM
		N#Cc1ccc(Cc2c(N3CCC(c4ccccc4)CC3)[nH]c(=O)[nH]c2=O)cc1	inhibition [4]: 37%
		CC(=O)Nc1cccc(C2CCN(c3[nH]c(=O)[nH]c(=O)c3Cc3ccccc3)CC2)c1	inhibition [4]: 11%
9.1	96	O=c1[nH]c(N2CCC(c3ccccc3)CC2)c(Cc2cccc(Cl)c2)c(=O)[nH]1	Ki [5]: 7050 nM
360		Cn1c(=O)[nH]c(N2CCC(O)(Cc3ccccc3)CC2)c(Cc2ccccc2)c1=O	
7.1		COc1ccccc1C1CCN(c2[nH]c(=O)[nH]c(=O)c2Cc2ccccc2)CC1	Ki [1]: 298 nM
9.2	158	COc1cccc(C2CCN(c3[nH]c(=O)[nH]c(=O)c3Cc3ccccc3)CC2)c1	Ki [1]: 1270 nM
37		N#Cc1cccc(Cc2c(N3CCC(c4ccccc4)CC3)[nH]c(=O)[nH]c2=O)c1	
45		COc1ccc(C2CCN(c3[nH]c(=O)[nH]c(=O)c3Cc3ccccc3)CC2)cc1	
		Cn1c(=O)[nH]c(N2CCC(CCCc3ccccc3)CC2)c(Cc2ccccc2)c1=O	inhibition [4]: 18%
24	100	Cn1c(=O)[nH]c(N2CCC(Cc3ccccc3)CC2)c(Cc2ccccc2)c1=O	
		CC1CCN(c2[nH]c(=O)n(C)c(=O)c2Cc2ccccc2)CC1	inhibition [4]: 2%
19	150	O=c1[nH]c(N2CCC(Cc3ccccc3)CC2)c(Cc2ccccc2)c(=O)[nH]1	
20	190	Cn1c(=O)[nH]c(N2CCC(c3ccccc3)CC2)c(Cc2ccccc2)c1=O	
78		Cn1c(=O)[nH]c(N2CCC(Oc3ccccc3)CC2)c(Cc2ccccc2)c1=O	
31	260	O=c1[nH]c(N2CCC(c3ccccc3)CC2)c(Cc2ccc(Cl)cc2)c(=O)[nH]1	
8.1	93	O=c1[nH]c(N2CCC(c3ccccc3)CC2)c(Cc2ccccc2)c(=O)[nH]1	AUC [6]: 600 ng·h/mL; inhibition at 1 µM [7]: 25%; Cmax [8]: 143 ng/mL; Drug uptake [9]: 45 ng/g; Cp [10]: 178 ng/mL; remaining at 0.5 h [11]: 94%; Ki [1]: 930 nM
